# Columns and labels:
# Assay in all cases: biochemical
# Design in all cases: KinomeScan competition binding panel (DiscoveRx), percent of control at 1 uM
# Details in all cases: read-out: Percent Control
# ERBB2 = ERBB2 (Homo sapiens, UniProt P04626)
# How it was run: (§1)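 Selectivity profiled across 456 kinases/mutants by KinomeScan binding technology.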
# MARK3 = MARK3 (Homo sapiens, UniProt P27448)
# How it was run: as §1
# BTK = BTK (Homo sapiens, UniProt Q06187)
# How it was run: as §1
# JNK3 = molecular target: T1, JNK3 (Homo sapiens, UniProt P53779)
# T1 construct: gene MAPK10
# How it was run: as §1
# PKN1 = PKN1 (Homo sapiens, UniProt Q16512)
# How it was run: as §1
# STK16 = STK16 (Homo sapiens, UniProt O75716)
# STK16, sequence (O75716 whole entry): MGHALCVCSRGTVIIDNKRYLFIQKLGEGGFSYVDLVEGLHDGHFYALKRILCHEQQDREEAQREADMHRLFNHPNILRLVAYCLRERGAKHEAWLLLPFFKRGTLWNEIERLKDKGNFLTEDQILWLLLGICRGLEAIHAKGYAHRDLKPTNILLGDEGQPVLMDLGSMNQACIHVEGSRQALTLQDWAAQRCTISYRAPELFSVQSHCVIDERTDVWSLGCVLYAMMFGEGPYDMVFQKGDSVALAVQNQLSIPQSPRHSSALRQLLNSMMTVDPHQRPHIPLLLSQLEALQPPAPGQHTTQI
# How it was run: as §1
# INSR = INSR (Homo sapiens, UniProt P06213)
# How it was run: as §1
# PDPK1 = PDPK1 (Homo sapiens, UniProt O15530)
# How it was run: as §1
# p38-alpha = molecular target: T2, p38-alpha (Homo sapiens, UniProt Q16539)
# T2 construct: gene MAPK14
# T2 sequence (Q16539 whole entry): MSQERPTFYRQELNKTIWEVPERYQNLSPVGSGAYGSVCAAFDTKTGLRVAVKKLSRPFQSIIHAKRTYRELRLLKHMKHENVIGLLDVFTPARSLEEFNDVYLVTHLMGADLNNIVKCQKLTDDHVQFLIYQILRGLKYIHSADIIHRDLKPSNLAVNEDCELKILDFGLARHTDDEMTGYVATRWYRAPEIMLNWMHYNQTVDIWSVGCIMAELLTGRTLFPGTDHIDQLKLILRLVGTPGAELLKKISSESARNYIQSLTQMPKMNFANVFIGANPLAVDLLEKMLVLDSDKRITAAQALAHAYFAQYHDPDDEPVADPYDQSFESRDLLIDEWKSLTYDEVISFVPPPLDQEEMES
# How it was run: as §1
# [1] = molecular target: T3, RPS6KA5(Kin.Dom.2-C-terminal) (Homo sapiens, UniProt O75582)
# T3 construct: Kin.Dom.2-C-terminal
# How it was run: as §1
# NDR1 = molecular target: T4, NDR1 (Homo sapiens, UniProt Q15208)
# T4 construct: gene STK38
# How it was run: as §1
# PIK3CG = PIK3CG (Homo sapiens, UniProt P48736)
# How it was run: as §1
# BMPR1A = BMPR1A (Homo sapiens, UniProt P36894)
# BMPR1A, sequence (P36894 whole entry): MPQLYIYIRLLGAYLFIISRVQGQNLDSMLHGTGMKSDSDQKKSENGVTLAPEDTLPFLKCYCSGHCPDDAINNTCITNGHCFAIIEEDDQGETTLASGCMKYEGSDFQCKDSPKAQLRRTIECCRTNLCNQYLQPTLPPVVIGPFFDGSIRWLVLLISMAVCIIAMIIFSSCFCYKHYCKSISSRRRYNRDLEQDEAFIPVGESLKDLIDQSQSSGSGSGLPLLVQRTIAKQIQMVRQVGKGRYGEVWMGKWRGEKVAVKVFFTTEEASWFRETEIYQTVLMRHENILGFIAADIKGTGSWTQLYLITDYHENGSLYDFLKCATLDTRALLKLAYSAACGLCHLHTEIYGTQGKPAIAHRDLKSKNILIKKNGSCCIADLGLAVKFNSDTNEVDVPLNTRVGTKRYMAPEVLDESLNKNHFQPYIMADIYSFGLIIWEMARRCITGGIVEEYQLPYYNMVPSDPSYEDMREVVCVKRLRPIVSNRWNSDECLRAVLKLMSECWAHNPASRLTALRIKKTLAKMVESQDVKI
# How it was run: as §1
# AKT2 = AKT2 (Homo sapiens, UniProt P31751)
# How it was run: as §1
# NEK10 = NEK10 (Homo sapiens, UniProt Q6ZWH5)
# NEK10, sequence (Q6ZWH5 whole entry): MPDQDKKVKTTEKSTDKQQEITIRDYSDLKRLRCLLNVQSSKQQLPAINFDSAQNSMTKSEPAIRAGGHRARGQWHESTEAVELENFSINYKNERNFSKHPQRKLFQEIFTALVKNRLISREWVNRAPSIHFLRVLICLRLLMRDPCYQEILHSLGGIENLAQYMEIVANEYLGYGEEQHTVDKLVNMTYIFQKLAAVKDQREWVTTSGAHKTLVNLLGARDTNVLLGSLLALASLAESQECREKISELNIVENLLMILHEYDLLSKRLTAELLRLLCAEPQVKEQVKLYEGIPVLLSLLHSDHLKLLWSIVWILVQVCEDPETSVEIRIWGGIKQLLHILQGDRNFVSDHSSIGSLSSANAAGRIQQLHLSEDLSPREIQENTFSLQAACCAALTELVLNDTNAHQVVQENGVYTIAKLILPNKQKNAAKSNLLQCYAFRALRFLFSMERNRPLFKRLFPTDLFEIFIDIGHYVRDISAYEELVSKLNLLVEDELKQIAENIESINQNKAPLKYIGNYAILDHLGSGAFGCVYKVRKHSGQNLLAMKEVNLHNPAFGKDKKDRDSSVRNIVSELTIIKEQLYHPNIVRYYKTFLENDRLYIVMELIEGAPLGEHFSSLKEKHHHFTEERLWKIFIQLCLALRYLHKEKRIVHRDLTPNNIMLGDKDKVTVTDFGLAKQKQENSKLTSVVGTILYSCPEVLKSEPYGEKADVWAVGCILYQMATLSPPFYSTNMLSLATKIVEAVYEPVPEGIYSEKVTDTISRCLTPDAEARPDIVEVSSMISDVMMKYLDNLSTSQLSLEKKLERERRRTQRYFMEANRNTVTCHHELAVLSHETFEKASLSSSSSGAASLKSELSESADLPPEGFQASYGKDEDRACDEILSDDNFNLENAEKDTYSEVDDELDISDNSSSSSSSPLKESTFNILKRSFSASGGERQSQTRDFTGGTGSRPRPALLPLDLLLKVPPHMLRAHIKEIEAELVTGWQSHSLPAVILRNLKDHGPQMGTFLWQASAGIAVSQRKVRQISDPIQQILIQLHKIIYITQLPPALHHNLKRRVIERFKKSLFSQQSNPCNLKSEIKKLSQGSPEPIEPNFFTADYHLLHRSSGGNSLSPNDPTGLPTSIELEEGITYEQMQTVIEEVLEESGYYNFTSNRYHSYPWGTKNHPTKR
# How it was run: as §1
# CIT = CIT (Homo sapiens, UniProt O14578)
# How it was run: as §1
# EPHB4 = EPHB4 (Homo sapiens, UniProt P54760)
# How it was run: as §1
# EPHB6 = EPHB6 (Homo sapiens, UniProt O15197)
# EPHB6, sequence (O15197 whole entry): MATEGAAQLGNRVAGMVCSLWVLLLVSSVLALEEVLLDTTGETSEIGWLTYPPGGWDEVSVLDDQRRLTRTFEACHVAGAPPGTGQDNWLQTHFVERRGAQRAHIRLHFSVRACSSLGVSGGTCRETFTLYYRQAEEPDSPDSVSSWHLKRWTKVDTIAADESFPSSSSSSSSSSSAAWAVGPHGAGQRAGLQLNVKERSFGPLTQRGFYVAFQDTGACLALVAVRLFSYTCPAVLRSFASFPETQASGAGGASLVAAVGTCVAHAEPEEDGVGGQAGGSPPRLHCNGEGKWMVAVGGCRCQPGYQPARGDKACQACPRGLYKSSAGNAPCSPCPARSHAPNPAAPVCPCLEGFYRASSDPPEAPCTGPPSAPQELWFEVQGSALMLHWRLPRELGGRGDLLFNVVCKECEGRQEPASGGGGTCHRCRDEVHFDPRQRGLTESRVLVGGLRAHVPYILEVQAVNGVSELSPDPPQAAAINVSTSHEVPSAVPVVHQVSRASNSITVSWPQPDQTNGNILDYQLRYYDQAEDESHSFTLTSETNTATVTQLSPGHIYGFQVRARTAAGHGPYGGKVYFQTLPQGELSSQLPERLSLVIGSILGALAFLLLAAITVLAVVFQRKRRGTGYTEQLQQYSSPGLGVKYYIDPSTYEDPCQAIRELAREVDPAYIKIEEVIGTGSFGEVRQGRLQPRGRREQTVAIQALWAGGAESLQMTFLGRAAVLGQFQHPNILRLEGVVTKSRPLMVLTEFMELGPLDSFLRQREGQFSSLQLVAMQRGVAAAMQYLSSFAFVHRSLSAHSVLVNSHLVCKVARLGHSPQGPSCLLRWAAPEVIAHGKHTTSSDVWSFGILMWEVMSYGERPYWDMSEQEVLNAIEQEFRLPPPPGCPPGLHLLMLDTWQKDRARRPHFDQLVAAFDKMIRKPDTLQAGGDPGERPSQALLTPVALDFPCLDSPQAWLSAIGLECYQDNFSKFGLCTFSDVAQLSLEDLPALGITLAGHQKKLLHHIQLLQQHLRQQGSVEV
# How it was run: as §1
# [2] = molecular target: T5, ABL1(Y253F)-phosphorylated (Homo sapiens, UniProt P00519, Y253F)
# T5 construct: phosphorylated
# How it was run: as §1
# PIK3C2G = PIK3C2G (Homo sapiens, UniProt O75747)
# PIK3C2G, sequence (O75747 whole entry): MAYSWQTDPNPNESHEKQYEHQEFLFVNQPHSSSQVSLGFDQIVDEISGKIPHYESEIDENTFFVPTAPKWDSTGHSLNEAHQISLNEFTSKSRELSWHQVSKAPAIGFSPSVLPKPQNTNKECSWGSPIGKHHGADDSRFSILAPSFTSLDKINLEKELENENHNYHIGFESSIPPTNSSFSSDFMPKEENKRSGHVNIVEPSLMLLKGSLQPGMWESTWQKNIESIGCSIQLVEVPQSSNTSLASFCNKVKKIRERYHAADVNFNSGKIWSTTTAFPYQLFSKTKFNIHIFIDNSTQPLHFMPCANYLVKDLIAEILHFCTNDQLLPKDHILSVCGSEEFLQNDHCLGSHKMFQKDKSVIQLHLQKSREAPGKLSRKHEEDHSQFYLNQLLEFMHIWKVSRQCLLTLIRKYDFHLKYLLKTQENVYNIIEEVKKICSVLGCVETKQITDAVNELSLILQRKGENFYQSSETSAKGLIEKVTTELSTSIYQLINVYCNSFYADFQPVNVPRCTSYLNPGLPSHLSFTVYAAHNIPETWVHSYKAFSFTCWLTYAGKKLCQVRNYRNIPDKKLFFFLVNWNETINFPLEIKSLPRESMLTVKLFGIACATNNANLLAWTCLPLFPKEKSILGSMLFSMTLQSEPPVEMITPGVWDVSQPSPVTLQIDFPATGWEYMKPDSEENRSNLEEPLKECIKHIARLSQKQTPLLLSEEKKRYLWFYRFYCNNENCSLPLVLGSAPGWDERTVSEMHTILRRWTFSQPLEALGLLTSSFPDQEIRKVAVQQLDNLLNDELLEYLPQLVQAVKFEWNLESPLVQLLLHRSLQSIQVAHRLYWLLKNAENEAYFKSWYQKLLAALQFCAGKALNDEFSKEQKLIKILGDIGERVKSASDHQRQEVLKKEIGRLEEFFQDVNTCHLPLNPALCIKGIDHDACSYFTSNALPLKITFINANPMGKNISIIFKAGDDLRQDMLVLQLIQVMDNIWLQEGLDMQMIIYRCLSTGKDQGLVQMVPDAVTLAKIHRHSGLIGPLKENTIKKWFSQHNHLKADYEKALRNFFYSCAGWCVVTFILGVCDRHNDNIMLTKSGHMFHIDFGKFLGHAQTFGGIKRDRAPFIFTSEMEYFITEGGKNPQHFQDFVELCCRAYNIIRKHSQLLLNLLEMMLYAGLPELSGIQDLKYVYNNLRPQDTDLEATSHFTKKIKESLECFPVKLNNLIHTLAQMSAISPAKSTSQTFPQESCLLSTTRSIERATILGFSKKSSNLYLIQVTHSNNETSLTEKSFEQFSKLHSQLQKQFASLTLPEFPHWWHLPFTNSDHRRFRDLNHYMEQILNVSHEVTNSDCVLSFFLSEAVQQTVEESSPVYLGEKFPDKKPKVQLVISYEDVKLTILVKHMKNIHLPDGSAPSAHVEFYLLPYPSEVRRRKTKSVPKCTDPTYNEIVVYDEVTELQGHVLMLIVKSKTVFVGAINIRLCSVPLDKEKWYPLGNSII
# How it was run: as §1
# BMPR2 = BMPR2 (Homo sapiens, UniProt Q13873)
# How it was run: as §1
# IGF1R = IGF1R (Homo sapiens, UniProt P08069)
# How it was run: as §1
# EPHA3 = EPHA3 (Homo sapiens, UniProt P29320)
# How it was run: as §1
# HIPK2 = HIPK2 (Homo sapiens, UniProt Q9H2X6)
# How it was run: as §1
# OSR1 = molecular target: T6, OSR1 (Homo sapiens, UniProt O95747)
# T6 construct: gene OXSR1
# How it was run: as §1
smiles,measurement,setting,value
C=CC(=O)Nc1cc(-n2c(=O)ccc3cnc4ccc(-n5cccn5)cc4c32)ccc1C [CHMFL-BTK-11],remaining binding at 1 µM,ERBB2,98%
same,remaining binding at 1 µM,MARK3,100%
same,remaining binding at 1 µM,BTK,8.2%
same,remaining binding at 1 µM,JNK3,100%
same,remaining binding at 1 µM,PKN1,100%
same,remaining binding at 1 µM,STK16,91%
same,remaining binding at 1 µM,INSR,82%
same,remaining binding at 1 µM,PDPK1,90%
same,remaining binding at 1 µM,p38-alpha,76%
same,remaining binding at 1 µM,[1],89%
same,remaining binding at 1 µM,NDR1,68%
same,remaining binding at 1 µM,PIK3CG,73%
same,remaining binding at 1 µM,BMPR1A,100%
same,remaining binding at 1 µM,AKT2,100%
same,remaining binding at 1 µM,NEK10,97%
same,remaining binding at 1 µM,CIT,98%
same,remaining binding at 1 µM,EPHB4,100%
same,remaining binding at 1 µM,EPHB6,87%
same,remaining binding at 1 µM,[2],89%
same,remaining binding at 1 µM,PIK3C2G,95%
same,remaining binding at 1 µM,BMPR2,100%
same,remaining binding at 1 µM,IGF1R,100%
same,remaining binding at 1 µM,EPHA3,97%
same,remaining binding at 1 µM,HIPK2,96%
same,remaining binding at 1 µM,OSR1,96%
